Source: patent publication US20100112089A1, “PEPTIDE COMPOUND AND USE THEREOF” (Takeda Pharmaceutical Company Limited, priority 2008, published 2010)

Columns and labels:
[1] = test system: NCI-H226 subcutaneous xenograft tumor; assay: Subcutaneous tumor xenograft model; type: in vivo, SCID mice; conditions: cisplatin 9 mg/kg
Procedure: A suspension of NCI-H226 cells was injected subcutaneously into the flanks of six weeks old male severe […] combined immune deficiency (SCID) mice (Charles River Lab., Wilmington, Mass.). The size of tumors was measured three times a week using a caliper. The volumes were calculated using the following formula: volume (cm^3)=[width^2 (mm)×length (mm)]/2000. The relative tumor volume was expressed as the Vt/V0 index, where Vt is the tumor volume on a measured day, and V0 is the volume of the same tumor just before the first treatment. Mean relative tumor sizes with standard error of mean, SEM, were plotted. Body weight was measured three times weekly from the first treatment, and the weight change was expressed as a percentage of the initial weight. Animals were housed in accordance with guidelines from the Association for the Assessment and Accreditation of Laboratory Animal Care International, and the protocols were approved by the institutional animal care committee of CanBas Co., Ltd.
The statistical significance of the differences of the relative tumor volume between groups was determined by Student's t tests.

NCI-H226 cells [2] = assay: Confocal immunofluorescence analysis of damage foci; type: cell-based; conditions: bleomycin at 0.4 μg/ml alone
Procedure: The cells were fixed in ice-cold methanol at −20° C. for 20 min, and blocked with PBS containing 5% BSA for 45 min. Cells were then incubated with anti-γ-H2AX, anti-ATM p-Ser1981, anti-DNA-PKcs p-Thr2609, anti-NBS1 p-Ser343, or anti-SMC1 p-Ser957 antibodies overnight at 4° C., followed by incubation with Alexa 594-conjugated secondary antibody (Invitrogen, Carlsbad, Calif.) for 1 hr at room temperature in the dark. Cell nuclei were stained using Hoechst 33342. Fluorescence was visualized and analyzed using Becton Dickinson Pathway450. The intensity of the nuclei and number of foci was assessed by ATTOVision and IPLab software (Becton Dickinson), respectively.

NCI-H226 cells [3] = type: cell-based; conditions: bleomycin 2 μg/ml alone
Procedure: The cells were harvested and lysed in a lysis buffer [50 mM Tris-HCl (pH 8.0), 5 mM EDTA (pH 8.0), 100 mM NaCl, 0.5% NP-40, 2 mM DTT, 50 mM NaF, 1 mM Na3VO4, 1 μM microcystin, proteinase inhibitors cocktail (Roche, Mannheim, Germany)] for 30 min on ice and the lysates were clarified by centrifugation at 15,000 rpm for 20 min at 4° C. Protein concentration of the supernatants was evaluated using a detergent-compatible protein assay kit (Bio-Rad, Hercules, Calif.) according to the manufacturer's instructions. Whole cell lysates (60 μg) were run on a 10-12% SDS-PAGE gel, and transferred onto polyvinylidene difluoride (PVDF) membranes (Bio-Rad). The membrane was blocked at room temperature for 1 hr in TBST (0.1% Tween 20 in TBS) containing 2% ECL Advance Blocking Reagent (GE healthcare, Waukesha, Wis.) and incubated with primary antibody overnight at 4° C. The membrane was incubated with anti-peroxidase conjugated secondary antibody (Cell Signaling) for 1 hr at room temperature and analyzed using the enhanced chemiluminescence detection system (ECL Advance Western Blotting Detection Kit, GE healthcare).

Compound	tumor growth [1]	foci formation (γ-H2AX, NBS1 p-Ser343, ATM p-Ser1981, SMC1 p-Ser957) (NCI-H226 cells [2])	phosphorylation of ATM (Ser1981), H2AX, CHK1 (Ser317), CHK2 (Thr68) (NCI-H226 cells [3])
N.N.[Cl][Pt][Cl] [cisplatin]	suppressed tumor growth	–	–
bleomycin	–	only marginally increased foci formation	induced phosphorylation
